# “And” between values parts separate entries of the source, which are not always exact repeats. Equal entries are not always repeated. No end group written: not given here.
# Experiments:
# [1] = system: HFD-fed mice; experiment: Serum biochemical parameters in HFD-fed mice; format: in vivo, C57BL/6 mice; conditions: EIA10 100 mg/kg/d or orlistat 60 mg/kg/d oral for 5 weeks, mean ± SEM, n = 8; for ALT (alanine aminotransferase) / AST (aspartate aminotransferase) / HDL (high-density lipoprotein cholesterol) / LDL/VLDL / TC (total cholesterol) / TG (triglyceride): serum
# Excerpt: (§1) Four-week-old male C57BL/6 mice were purchased from the Nara Bio Animal Center (NARA Biotech, Seoul, Korea) All experiments were approved by the Institutional Animal Care and Use Committee of Konkuk University (14 July 2019). All possible efforts were made to minimize the suffering and the animal count utilized in this study (KU19102). The mice were randomly divided into the following two groups after 1 week of acclimatization: n = 8 in the control group, fed a normal diet (Control, fat content of 10% kcal), and n = 30, fed a high-fat diet (HFD, fat content of 60% kcal). Mice were registered daily for food intake, and their body weights were assessed twice a week. After 5 weeks, mice with a body weight 20% higher than that of the control group were picked and divided randomly into three groups (n = 8/group): HFD + EIA10, 100 mg/kg/d; and HFD + orlistat, 60 mg/kg /d for 5 weeks. As a positive control, Orlistat was used. After 12 weeks, the mice were subjected to fasting overnight and sacrificed (Figure 2A). Blood samples were harvested for further analysis. Sections of epididymal adipose and liver tissues were fixed in 10% formaldehyde for histological analyses and frozen in liquid nitrogen.
# (§2) Through heart puncture, blood samples were collected and serum was isolated through centrifugation (3000 rpm for 20 min) and processed before further study at −80 °C. An automated analyzer (Abaxis VETSVAN VS2 Chemistry Analyzer, Union City, CA, USA) assessed serum levels of blood urea nitrogen, alanine aminotransferase (ALT), alkaline phosphatase, aspartate aminotransferase (AST), total protein, serum albumin, and electrolytes. Using a fast blood lipid analyzer (OSANG Healthcare Lipid Pro, Anyang, Korea), total cholesterol (TC), low-density lipoprotein cholesterol (LDL), high-density lipoprotein cholesterol (HDL), and TG were calculated. Adiponectin was analyzed by Western blotting, and leptin was quantified using a leptin enzyme-linked immunosorbent assay (ELISA) kit (MERCK, DHB, Germany).
# [2] = system: HFD-fed mice; experiment: Oral glucose tolerance test, insulin levels and insulin resistance indices in HFD-fed mice; format: in vivo, C57BL/6 mice; conditions: for area under the OGTT curve (AUC): oral glucose 1 g/kg after 12 h fast, Figure 3B
# Excerpt: as §1, with “After 5 weeks, mice with a body weight 20% higher than that of the control group were picked and divided randomly into three groups (n = 8/group):” left out, “nitrogen. An oral glucose tolerance test (OGTT) to determine the clearance of a standardized glucose load was performed after 5 weeks of oral administration. Plasma glucose was determined under postabsorptive conditions with blood collected at time ‒30 and 0 and then after oral administration of 1 g/kg of glucose at 30, 60, 90, and 120 min. Using a Blood Glucose Testing System (891 Hogye-Dong Dongan-gu, Anyang, Gyeonggi-do, Korea), blood samples were measured from the tail veins. A mouse ultrasensitive insulin ELISA package (ALPCO, Salem, NH, USA) was quantified for serum insulin. The hepatic insulin resistance index (hepatic IRI) was estimated by using the validated method of Matsuda and DeFronzo [43]. Insulin resistance was assessed using the homeostasis model assessment of insulin resistance (HOMA-IR). HOMA is a mathematically derived model of glucose–insulin feedback.” for “nitrogen.”
# [3] = system: HFD-fed mice; experiment: Body weight, energy intake, organ and adipose tissue weights, DXA body fat in high-fat diet (HFD)-fed mice; format: in vivo, C57BL/6 mice; conditions: for Total fat weight: DXA; for Total fat weight / food intake between different drug groups (appetite): EIA10 100 mg/kg/d or orlistat 60 mg/kg/d oral; for food intake between different drug groups (appetite): HFD-fed mice; for Total energy intake: over 10 weeks
# Excerpt: as §1
# Dual-energy X-ray absorptiometry (DXA) measurements were used to compare the body fat. DXA measurements were performed after 4 weeks of administration using a total-body scanner (InAlyzer dual X-ray absorptiometry, Medikors, Gyeonggi, Korea). Data were obtained once with low energy and once with high energy.
# [4] = system: 3T3-L1 cells; experiment: Lipid accumulation in differentiated 3T3-L1 cells by Oil Red O staining; format: cell-based; conditions: synthesized peptides, untreated cells as control
# Procedure: The 3T3-L1 cells were obtained from the Korean Cell Line Bank (Seoul, Korea). They were cultured and maintained in Dulbecco’s modified Eagle medium (DMEM) at 37 °C in a humidified atmosphere of 5% CO2. Additionally, 2-day post-confluent preadipocytes (designated day 0) were cultured in a 2-day differentiation medium composed of DMEM, 0.5 mM IBMX, 1 μM dexamethasone, and 5 μg/mL insulin to induce differentiation. The cells were then cultured in a DMEM containing 5 μg/mL insulin for another 2 days. The medium was replaced every 2 days until the cells had accumulated intracellular lipid droplets. Cells were seeded in 6-well plates, and adipocyte differentiation was induced for 8 days. On day 8, the cells were fixed with 10% buffered formalin and stained with Oil Red O solution for 60 min at room temperature. Images of lipid droplets in the 3T3-L1 adipocytes were captured using a Leica DMi1 microscope (Leica, Germany).
# [5] = system: HFD-fed mice; experiment: Histological analysis of liver and epididymal adipose tissue (H&E, Oil Red O, IHC) of HFD-fed mice; format: in vivo, C57BL/6 mice
# Excerpt: as §1
# Liver and epididymal adipose tissues were dissected and embedded in paraffin for histological examination. Tissue blocks were cut into 4-μm thick sections that were stained with hematoxylin and eosin. Frozen liver sections were cut into 8-μm thick sections that were stained with Oil Red O. Adipocyte sizes were assessed using a microscope under 200× magnification to measure tissue size.
# [6] = system: adiponectin, leptin, SREBP-1c, PPARγ, C/EBP-α, FAS, ACC, FABP4; experiment: mRNA (real-time PCR) and protein (Western blot, ELISA) levels of adipogenic/lipogenic factors in HFD-fed mice; format: in vivo, C57BL/6 mice
# Excerpt: as §1, §2
# Total cellular RNA was isolated from the epididymal adipose tissue of each group of mice using TRIzol. The first strand of complementary DNA (cDNA) was synthesized using Superscript II reverse transcriptase (Invitrogen). The conditions for RT-PCR were similar to those previously described. Quantitative real-time PCR was carried out using a Thermal Cycler Dice TP850 (Takarabio Inc., Shiga, Japan) according to the manufacturer’s protocol.
# Frozen epididymal adipose tissues from mice were homogenized in liquid nitrogen. Tissue lyses were lysed in a radioimmunoprecipitation lysis buffer containing 1% protein inhibitor cocktail. They were transferred to a nitrocellulose blotting membrane and blocked with 5% skim milk, incubated overnight with primary antibodies purchased from Cell Signaling Technology, and then incubated with secondary antibodies for 2 h. Equal protein loading was ascertained using Ponceau S staining of the blotted membranes. With the help of an improved chemiluminescence detection reagent, the antibody-specific proteins were visualized and quantified using ImageJ tools.
# [7] = male C57BL/6 mice on HFD, mean ± SEM, n = 8
# [8] = male C57BL/6 mice on HFD, EIA10 100 mg/kg/d or orlistat 60 mg/kg/d oral for 5 weeks, mean ± SEM, n = 8
molecule,measurement,setting,value
"CCCCCCCCCCC[C@@H](C[C@@H]1OC(=O)[C@H]1CCCCCC)OC(=O)[C@H](CC(C)C)NC=O [Orlistat, reference compound]",Glucose,[1],160.78 ± 13.62 mg/dL
same,ALT (alanine aminotransferase),[1],44.75 ± 8.38 U/L
same,AST (aspartate aminotransferase),[1],113.88 ± 16.17 U/L
same,HDL (high-density lipoprotein cholesterol),[1],72.05 ± 4.38 mg/dL
same,LDL/VLDL,[1],41.21 ± 2.59 mg/dL
same,TC (total cholesterol),[1],113.26 ± 3.40 mg/dL
same,TG (triglyceride),[1],115.52 ± 4.66 mg/dL
same,area under the OGTT curve (AUC),"[2]; vs HFD group, p < 0.05",significantly lower
same,Total fat weight,[3]; [7],13.71 ± 1.09 g
same,food intake between different drug groups (appetite),[3],No significant difference
same,Body weight gain,[3]; [8],12.56 ± 0.45 g
same,Epididymal adipose tissue weight,[3]; [8],1.90 ± 0.48 g
same,Final body weight,[3]; [8],36.11 ± 3.92 g
same,Initial body weight,[3]; [8],23.55 ± 0.07 g
same,Liver weight,[3]; [8],1.14 ± 0.12 g
same,Subcutaneous adipose tissue weight,[3]; [8],3.11 ± 0.53 g
same,Total energy intake,[3]; [8],1031.35 kcal and 1031.35 ± 26.32 kcal
ALNQAWAFLK [Peptide 16],Lipid Accumulation (% of Control),[4],57.47 % of Control
AVQGLLK [Peptide 5],Lipid Accumulation (% of Control),[4],48.40 % of Control
Ala-Glu-Arg-Val-Gly-Ala-Gly-Ala-Pro-Val-Try [Peptide 17],Lipid Accumulation (% of Control),[4],35.06 % of Control
EIAQDFK [Peptide 3],Lipid Accumulation (% of Control),[4],52.20 % of Control
EIAQDFKTDL [EIA10],lipid droplets in the liver (Oil Red O staining of frozen sections),"[5]; EIA10 100 mg/kg/d oral 5 weeks, vs HFD group, Figure 2C,E",significantly reduced number of lipid droplets
same,"size of the adipose cells (epididymal fat, H&E)","[5]; EIA10 100 mg/kg/d oral 5 weeks, vs HFD group, Figure 2D",lower than that of the HFD group
same,FAS in liver tissue by immunohistochemistry (IHC),[5]; Figure 5C,inhibited
same,Glucose,[1],137 ± 11.47 mg/dL
same,ALT (alanine aminotransferase),[1],58.75 ± 13.16 U/L
same,AST (aspartate aminotransferase),[1],99.20 ± 20.00 U/L
same,HDL (high-density lipoprotein cholesterol),[1],74.49 ± 2.57 mg/dL
same,LDL/VLDL,[1],32.97 ± 3.42 mg/dL
same,TC (total cholesterol),[1],107.46 ± 5.15 mg/dL
same,TG (triglyceride),[1],140.25 ± 5.23 mg/dL
same,plasma leptin concentration,"[6]; ELISA, HFD-fed mice, Figure 4B",reducing
same,mRNA and protein levels of SREBP-1c in the adipose tissue,"[6]; HFD-fed mice treated with EIA10 vs HFD group, Figure 4C,D",lower
same,protein levels of adiponectin in mouse epididymal adipose tissue,"[6]; Western blot, HFD-fed mice, Figure 4A",improved
same,mRNA and protein levels of PPARγ,"[6]; epididymal adipose tissue, HFD group mice, Figure 4C,D",decreased
same,"protein levels of PPARγ, C/EBP-α, SREBP-1c, and FABP4","[6]; epididymal adipose tissue, Western blot, Figure 4D",significantly decreased
same,FAS and ACC gene expression,"[6]; epididymal adipose tissue, Western blot, Figure 5A,B",inhibitory effect
same,"expression of PPARγ, C/EBP-α, FAS, and SREBP-1c","[6]; epididymal adipose tissue, real-time PCR, Figure 4C",downregulated
same,"insulin resistance (hepatic IRI, HOMA-IR)","[2]; five weeks of oral EIA10 in obese mice, Figure 3E,F",alleviated IR in the obese mice to some extent
same,area under the OGTT curve (AUC),"[2]; vs HFD group, p < 0.05",significantly lower
same,insulin secretion level after oral glucose,"[2]; oral glucose 1 g/kg, vs HFD group, p < 0.05, Figure 3C,D",decreased
same,Lipid Accumulation (% of Control),[4],30.22 % of Control
same,Total fat weight,[3]; [7],12.71 ± 0.78 g
same,food intake between different drug groups (appetite),[3],No significant difference
same,Epididymal adipose tissue weight,[3]; [8],2.06 ± 0.34 g
same,Final body weight,[3]; [8],37.38 ± 2.55 g
same,Initial body weight,[3]; [8],23.07 ± 0.33 g
same,Interscapular adipose tissue weight,[3]; [8],0.22 ± 0.06 g
same,Liver weight,[3]; [8],1.22 ± 0.25 g
same,Subcutaneous adipose tissue weight,[3]; [8],3.36 ± 0.58 g
same,Total energy intake,[3]; [8],1026.01 kcal and 1026.01 ± 2.60 kcal
HLQLAIR [Peptide 4],Lipid Accumulation (% of Control),[4],63.26 % of Control
HLQLAIRNDEELNK [Peptide 22],Lipid Accumulation (% of Control),[4],83.11 % of Control
IAQGGVLP [Peptide 6],Lipid Accumulation (% of Control),[4],38.01 % of Control
KLPFQR [Peptide 1],Lipid Accumulation (% of Control),[4],57.85 % of Control
NDEELNKLL [Peptide 7],Lipid Accumulation (% of Control),[4],39.44 % of Control
NKLLSGVTIA [Peptide 14],Lipid Accumulation (% of Control),[4],77.76 % of Control
QNIIPASTGAAK [Peptide 21],Lipid Accumulation (% of Control),[4],44.40 % of Control
RFQSSAVMA [Peptide 12],Lipid Accumulation (% of Control),[4],57.47 % of Control
RIVDFHMLESR [Peptide 18],Lipid Accumulation (% of Control),[4],41.94 % of Control
SGVTIAQGGVLP [Peptide 19],Lipid Accumulation (% of Control),[4],68.00 % of Control
STELLIR [Peptide 2],Lipid Accumulation (% of Control),[4],59.04 % of Control
TLSDYNIQK [Peptide 13],Lipid Accumulation (% of Control),[4],68.00 % of Control
VTIAQGGVLFNIQA [Peptide 23],Lipid Accumulation (% of Control),[4],74.36 % of Control
